# Results published in patent publication US20240382484A1, “COMPOSITION FOR TREATING, PREVENTING, OR AMELIORATING MELANOMA AND METHOD THEREOF” (Thomas Jefferson University, priority 2021, published 2024).
# Assays:
# [1] = test system: human NRAS mutant melanoma cell lines; test: 72 hours drug combination, cell density by IncuCyte, synergy by Combenefit with Loewe method; type: cell-based; conditions: WM1361A, WM1366, SK-MEL-30 and SK-MEL-173, 72 hours
# Procedure: FIG. 2A: NRAS mutant melanoma cell line WM1361A, WM1366, SK-MEL-30, SK-MEL-173, 1007 and 1014 were treated for 72 hours as indicated with GSK2334470 and trametinib and analyzed for cell density by IncuCyte. Synergy graphs were generated utilizing Combenefit Software with Loewe method. Data are represented as the mean from three biological independent experiments. FIG. 2B: WM1361A, WM1366, SK-MEL-30 or SK-MEL-173 cells were treated with GSK2334470 (PDPK1i) and trametinib (tram) alone or in combination (comb) at the indicated concentrations for 7 days. Cell growth was monitored by IncuCyte every 2 hours. Media were replaced twice with drugs during culture. Data are represented as the mean±SEM of three biological independent experiments. p values were calculated with an unpaired two-tailed t test. n.s., not significant.
# FIG. 10A-10B: Cas9 expressed clone WM1361A-iCas9 #1 (FIG. 10A), and WM1366-iCas9 #11 (FIG. 10B) cells were treated for 72 hours as indicated with GSK2334470 and trametinib and analyzed for cell density by IncuCyte. Synergy graphs were generated utilizing Combenefit Software with Loewe method. Data are represented as the mean from three biological independent experiments.
# FIG. 11A: WM1361A, WM1366, SK-MEL-30 and SK-MEL-173 cells were treated for 72 hours as indicated with GSK2334470 and PD0325901 and analyzed for cell density by IncuCyte. Synergy graphs were generated utilizing Combenefit Software with Loewe method. Data are represented as the mean from three biological independent experiments. FIG. 11B: WM1361A, WM1366, SK-MEL-30 or SK-MEL-173 cells were treated with GSK2334470 (PDPK1i) and PD0325901 (PD901) alone or in combination (Comb) at the indicated concentrations for 7 days. Cell growth was monitored by IncuCyte every 2 hours. Data are represented as the mean±SEM of three biological independent experiments. p values were calculated with an unpaired two-tailed t test. n.s., not significant.
# FIG. 16A: WM1361A and WM1366 cells were treated for 72 hours with indicated inhibitors and analyzed for cell density by IncuCyte. Synergy graphs were generated utilizing Combenefit Software with Loewe method. Data are represented as the mean from three biological independent experiments.
# To further analyze synergistic effects, the growth response of a panel of several NRAS mutant cells to titrated PDPK1i (GSK2334470) and MEKi (trametinib) combinations was assessed.
# Human WM1361A and WM1366 melanoma cell lines were cultured in MCDB153 (Sigma) with 2% FBS, 20% Leibowitz L-15 medium, and 5 μg/mL insulin (WM medium). Human SK-MEL-30 and SK-MEL-173 melanoma cell lines were cultured in RPMI-1640 with 10% FBS. […] All cells were cultured at 37° C. in a humidified atmosphere containing 5% CO2. […] Cell lines were STR analyzed, confirmed for NRAS/Nras mutation, and tested to be mycoplasma-free during experiments. For cell proliferation and drug response, cells were monitored by IncuCyte® (Essen Bioscience, Ann Arbor, MI) every 2 hours.
# [2] = test system: WM1361A and WM1366 cells; test: Reverse-phase protein array and immunoblot analysis; type: cell-based, human; conditions: immunoblot, 24 hours
# Procedure: FIG. 15A: Reverse-phase protein array analysis of WM1361A and WM1366 cells. The cells were treated with vehicle (DMSO), either pharmacologic inhibition or genetic depletion of PDPK1 only, MEK inhibitor only and the combinations as indicated. All samples were harvested in three biological independent experiments. Proteins levels were normalized to the mean. Antibodies were limited to those that were differentially expressed (BHFDR <0.05) in at least three of the four comparisons between combination and control samples. FIG. 15B: WM1361A and WM1366 cells were treated with PD0325901 and GSK2334470 as indicated for 24 hours. Cell lysates were applied to immunoblot with indicated antibodies. FIG. 15C: WM1361A and WM1366 parental clones (iCas9) and PDPK1-depleted clones by two individual sgRNAs (KO1 and K02) treated with trametinib as indicated for 24 hours. Cell lysates were applied to immunoblot with indicated antibodies.
# WM1361A and WM1366 cells were treated with vehicle control, PDPK1i (GSK2334470), MEKi (trametinib) or combined PDPK1i and MEKi for 48 hours. WM1361A and WM1366 cells were also transfected with ON-target control siRNAs or PDPK1 siRNAs, and then treated with or without trametinib for further 48 hours. Cells were harvested, lysed and analyzed as described in Tibes et al. (Mol Cancer Ther 5, 2512-2521, 2006). […]
# [3] = test system: 1014 cells; test: 1014 cell growth for 7 days monitored by IncuCyte; type: cell-based, mouse; conditions: in vitro
# [4] = test system: WM1366-iCas9 xenograft; test: WM1366-iCas9 xenograft tumor growth in Nu/J mice; type: in vivo, mouse; conditions: trametinib-containing chow (0.3 ppm) compared with control chow
# Text: FIG. 13A-13D: PDPK1 depletion delayed xenograft tumor growth in Nu/J mice, in accordance with some embodiments. FIG. 13A, Tumor growth of WM1366-iCas9 and PDPK1 knockout (KO) cells, represented as the change in volume (mm^3) over time, was shown from the start of injection to the start of treatment as indicated. Cyan dots indicated sacrifice of mice due to lack of visible tumors. The dotted line at 50 mm^3 indicates the size at which trametinib treatment was started. FIG. 13B: Time for tumor growth of WM1366-iCas9 cells to the start of treatment in male and female mice. Lines represent median number of days from the time of tumor implantation to the treatment size of 50 mm^3. The mouse without tumor formation was monitored for 105 days. p values were calculated with an unpaired two-tailed t test. […] FIG. 13D: Kaplan-Meier survival curves of WM1366-iCas9 tumor-bearing in female or male mice as indicated. p values were calculated by GraphPad Prism 9.0 with Log-rank (Mantel-Cox) test. n.s., not significant.
# Animal experiments were performed at Thomas Jefferson University in a facility accredited by the Association for the Assessment and Accreditation of Laboratory Animal Care and were approved by the Institutional Animal Care and Use Committee (protocol #1052). […] Mouse weights were monitored once a week or three times per week during drug treatment. […]
SMILES,synergistic inhibition of PDPK1i (GSK2334470) with PD0325901 [1],"p-S6, second MEKi with PDPK1i or sgRNA PDPK1 depletion [2]",1014 cell proliferation [3],tumor growth [4]
"O=C(NOC[C@H](O)CO)c1ccc(F)c(F)c1Nc1ccc(I)cc1F [PD0325901, (R)—N-(2,3-dihydroxypropoxy)-3,4-difluoro-2-((2-fluoro-4-iodophenyl)amino)benzamide]",broad synergistic effects,enhanced reduction,–,–
"CC(=O)Nc1cccc(-n2c(=O)n(C3CC3)c(=O)c3c(Nc4ccc(I)cc4F)n(C)c(=O)c(C)c32)c1 [trametinib, N-(3-(3-cyclopropyl-5-((2-fluoro-4-iodophenyl)amino)-6,8-dimethyl-2,4,7-trioxo-3,4,6,7-tetrahydropyrido[4,3-d]pyrimidin-1(2H)-yl)phenyl)acetamide]",–,–,suppressed,delayed
